The values below come from US8211894B2, “Heteroarylalkyl-8-azabicyclo[3.2.1]octane compounds as mu opioid receptor antagonists” (Theravance, Inc., priority 2007, dated 2012).

Read-outs that look alike come from different tables or passages of the source.

Assay [1] relates to loperamide-induced delayed gastric emptying. Nature of the assay: Rat gastric emptying assay (reversal of loperamide-induced delayed gastric emptying). It counts as in vivo. The settings on record: administered orally, loperamide 1 mg/kg s.c., gastric emptying model. The procedure: Assay 3: Rat Model of In Vivo Efficacy In this assay the efficacy of test compounds was evaluated in a model of gastrointestinal transit, which evaluates peripheral activity. This study was approved by the Institutional Animal Care and Use Committee at […]. and conformed to the Guide for the Care and Use of Laboratory Animals published by the National Academy of Sciences (©1996). a. Rat Gastric Emptying Assay Test compounds were evaluated in the rat gastric emptying assay to determine their ability to reverse loperamide-induced delayed gastric emptying. […] The administration of test compound was followed by subcutaneous administration of loperamide at a dose of 1 mg/kg or vehicle. Five minutes post loperamide or vehicle administration, a non-nutritive, non-absorbable charcoal meal was administered via oral gavage and animals were allowed free access to water for the sixty minute duration of the experiment. […] Gastric weight was then determined after removal of the ligatures. b. Data Analysis and Results Data was analyzed using the GraphPad Prism Software package (GraphPad Software, Inc., San Diego, Calif.). Percent reversal curves were constructed by non-linear regression analysis using the sigmoidal dose response (variable slope) model and best-fit ID50 values were calculated. […]

In assay [2] the target is T1, human mu opioid receptor (Homo sapiens, UniProt P35372).
T1 construct: host or cells: CHO-K1
T1 sequence (P35372 whole entry): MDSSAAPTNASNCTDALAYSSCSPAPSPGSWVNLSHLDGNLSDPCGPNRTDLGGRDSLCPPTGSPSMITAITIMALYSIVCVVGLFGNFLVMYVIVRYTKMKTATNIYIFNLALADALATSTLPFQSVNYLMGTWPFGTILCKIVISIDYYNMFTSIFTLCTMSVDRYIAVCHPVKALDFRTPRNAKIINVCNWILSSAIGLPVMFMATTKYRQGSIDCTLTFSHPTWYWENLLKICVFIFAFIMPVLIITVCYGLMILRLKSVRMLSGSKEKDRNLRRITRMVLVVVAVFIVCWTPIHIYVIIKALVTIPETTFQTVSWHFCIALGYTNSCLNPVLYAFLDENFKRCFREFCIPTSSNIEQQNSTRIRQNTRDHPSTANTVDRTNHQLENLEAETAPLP
Nature of the assay: Human mu GTP-Eu nucleotide exchange assay (agonist mediated activation, CHO-K1 membranes). It counts as biochemical. As to conditions: bound GTP-Eu relative to DAMGO (IA=100); read-out: intrinsic activity (IA), expressed as a percentage.

Assay [3] deals with T1, human mu opioid receptor. Nature of the assay: Radioligand binding assay, human mu opioid receptor ([3H]-Diprenorphine displacement).
Where [4] appears, read: [3H]-Diprenorphine 0.5 nM, CHO-K1 membranes, read-out: pKi at the human mu opioid receptor (converted).

Consider `NC(=O)c1cccc([C@H]2C[C@H]3CC[C@@H](C2)N3Cc2cn(C3CCCCC3)nn2)c1` [Example 1, 3-endo-[8-(1-Cyclohexyl-1H-[1,2,3]-triazol-4-ylmethyl)-8-azabicyclo[3.2.1]oct-3-yl]benzamide], for which the “ID50, dose required for 50% reversal of the effects of loperamide” value in assay [1] came out at 0.13 mg/kg. In addition, in assay [2], the Emax was -4%. This compound had a Ki in assay [3] of 0.0501 nM.
The matching figures for `NC(=O)c1cccc([C@H]2C[C@H]3CC[C@@H](C2)N3Cc2cn(C3CCC(F)(F)CC3)nn2)c1` [Example 4, 3-endo-{8-[1-(4,4-Difluorocyclohexyl)-1H-1,2,3-triazol-4-ylmethyl]-8-azabicyclo[3.2.1]oct-3-yl}benzamide]: 0.25 mg/kg, 0% and 0.1 nM.
On to `CCCc1cn(CCN2[C@@H]3CC[C@H]2C[C@@H](c2cccc(C(N)=O)c2)C3)nn1` [Example 8, 3-endo-{8-[2-(4-Propyl-[1,2,3]-triazol-1-yl)-ethyl]-8-aza-bicyclo[3.2.1]oct-3-yl}benzamide], for which the Emax in assay [2] was -4%. Also, the Ki in assay [3] (setting [4]) is 0.0794 nM.
On the same counts, the results for `NC(=O)c1cccc([C@H]2C[C@H]3CC[C@@H](C2)N3CCCn2cc(-c3ccc(F)cc3F)nn2)c1` [Example 9, 3-endo-(8-{3-[4-(2,4-Difluorophenyl)-[1,2,3]-triazol-1-yl]-propyl}-8-azabicyclo[3.2.1]oct-3-yl)benzamide] are -1% and 0.0501 nM.
On the same counts, the results for `NC(=O)c1cccc([C@H]2C[C@H]3CC[C@@H](C2)N3Cc2cncn2Cc2ccccc2)c1` [Example 11, 3-endo-[8-(3-Benzyl-1H-imidazol-4-ylmethyl)-8-aza-bicyclo[3.2.1]oct-3-yl]-benzamide] are 6% and 0.631 nM.
The matching figures for `CC(C)Cc1nc(CCCN2[C@@H]3CC[C@H]2C[C@@H](c2cccc(C(N)=O)c2)C3)no1` [Example 14, 3-endo-{8-[3-(5-Isobutyl-1,2,4-oxadiazol-3-yl)-propyl]-8-aza-bicyclo[3.2.1]oct-3-yl}benzamide]: -11% and 1.58 nM.
